Results published in ChEMBL document CHEMBL1130041, “Halogenated 4-(phenoxymethyl)piperidines as potential radiolabeled probes for sigma-1 receptors: in vivo evaluation of [123I]-1-(iodopropen-2-yl)-4-[(4-cyanophenoxy)methyl]pip eri dine” (J Med Chem, 1997).
pKi: −log10 of the molar value.

Assays:
Sigma 2 receptor [1] = test: In vitro for binding affinity at sigma-2 receptor by measuring its ability to displace [3H]DTG from guinea pig membranes; set-up: species or system Cavia porcellus
[2] = In Vitro binding affinity for 5-hydroxytryptamine 2 receptor
[3] = Partition coefficient (logP); type: physicochemical; settings: octanol/water
[4] = (§1) Ki ratio measured as Ki of sigma-2 receptor to that of sigma-1 receptor.
D(2) dopamine receptor = D(2) dopamine receptor (Homo sapiens, UniProt P14416); test: In vitro binding affinity for Dopamine receptor D2
Chain of D(2) dopamine receptor (P14416 whole entry): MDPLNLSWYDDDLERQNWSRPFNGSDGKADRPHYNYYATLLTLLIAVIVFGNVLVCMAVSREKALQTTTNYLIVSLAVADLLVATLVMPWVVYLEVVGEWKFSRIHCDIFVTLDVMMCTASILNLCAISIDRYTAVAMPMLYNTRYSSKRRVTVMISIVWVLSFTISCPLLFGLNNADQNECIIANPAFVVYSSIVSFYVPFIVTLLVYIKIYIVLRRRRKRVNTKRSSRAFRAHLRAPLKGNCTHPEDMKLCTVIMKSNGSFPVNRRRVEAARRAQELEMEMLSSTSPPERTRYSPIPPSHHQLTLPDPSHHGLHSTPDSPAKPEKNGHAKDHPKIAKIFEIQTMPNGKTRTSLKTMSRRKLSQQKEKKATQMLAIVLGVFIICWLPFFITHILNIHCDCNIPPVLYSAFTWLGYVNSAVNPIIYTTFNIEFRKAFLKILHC

[5] = biological target: T1, Sigma non-opioid intracellular receptor 1 (Homo sapiens, UniProt Q99720); test: Ki ratio measured as Ki of sigma-2 receptor to that of sigma-1 receptor; settings: Cavia porcellus
T1 sequence (Q99720 whole entry): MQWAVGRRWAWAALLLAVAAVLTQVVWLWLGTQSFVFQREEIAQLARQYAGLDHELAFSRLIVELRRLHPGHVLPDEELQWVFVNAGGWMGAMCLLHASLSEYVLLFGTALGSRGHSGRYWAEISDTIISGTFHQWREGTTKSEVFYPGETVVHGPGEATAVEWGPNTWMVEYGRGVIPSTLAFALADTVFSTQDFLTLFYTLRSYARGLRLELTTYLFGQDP

Sigma 2 receptor [6] = test: Receptor binding affinity against Sigma-2 receptor from guinea pig membranes; set-up: species or system Cavia porcellus
[7] = biological target: T1, Sigma non-opioid intracellular receptor 1; test: as §1; settings: Cavia porcellus
Rattus norvegicus [8] = species: Rattus norvegicus; test: Blockade of uptake of the radiotracer in posterior cortex of rat; type: functional
[9] = biological target: T1, Sigma non-opioid intracellular receptor 1; test: Receptor binding affinity against Sigma receptor
Rattus norvegicus [10] = species: Rattus norvegicus; test: Blockade of uptake of the radiotracer in posterior cortex; type: functional

N#Cc1ccc(OCC2CCN(Cc3ccccc3Br)CC2)cc1
pKi (Sigma 2 receptor [1]): 7.51
pKi [2]: < 6.00
logP [3]: 4.09
Ratio [4]: 15.4

N#Cc1ccccc1CN1CCC(COc2ccc(I)cc2)CC1
pKi (Sigma 2 receptor [1]): 6.85
pKi [2]: < 6.00
logP [3]: 4.32
Ratio [4]: 13.5

Fc1c(F)c(F)c(CN2CCC(COc3c(F)c(F)c(F)c(F)c3F)CC2)c(F)c1F
pKi (Sigma 2 receptor [1]): < 6.00
pKi [2]: < 5.00

N#Cc1ccc(OCC2CCN(CCF)CC2)cc1
pKi (Sigma 2 receptor [1]): 6.44
pKi (D(2) dopamine receptor): < 5.00
pKi [2]: < 5.00
logP [3]: 2.42
Ratio [4]: 14.9

N#Cc1cccc(CN2CCC(COc3ccc(I)cc3)CC2)c1
pKi (Sigma 2 receptor [1]): 7.16
pKi [2]: < 6.00
logP [3]: 4.19
Ratio [4]: 24

Ic1ccc(OCC2CCN(CC3CC3)CC2)cc1
pKi (Sigma 2 receptor [1]): 7.93
pKi (D(2) dopamine receptor): < 5.00
pKi [2]: < 5.00
logP [3]: 6.67
Ratio [4]: 23.4

N#Cc1ccc(OCC2CCN(Cc3ccc(F)cc3)CC2)cc1
pKi (Sigma 2 receptor [1]): 8.28
pKi (D(2) dopamine receptor): < 5.00
Ratio [5]: 6.84
pKi [2]: < 5.00
logP [3]: 3.22

OCCN1CCC(COc2ccc(I)cc2)CC1
pKi (Sigma 2 receptor [1]): 6.86
pKi (D(2) dopamine receptor): < 5.00
pKi [2]: < 5.00
logP [3]: 3.8
Ratio [4]: 60.4

Brc1ccc(OCC2CCN(CC3CC3)CC2)cc1
pKi (Sigma 2 receptor [1]): 7.87
pKi (D(2) dopamine receptor): < 5.00
pKi [2]: < 5.00
logP [3]: 6.22
Ratio [4]: 22.7

Fc1cccc(CN2CCC(COc3c(F)c(F)c(F)c(F)c3F)CC2)c1
pKi (Sigma 2 receptor [1]): 7.60
pKi [2]: < 5.00
logP [3]: 4.72
Ratio [4]: 7.48

FCCN1CCC(COc2ccc(I)cc2)CC1
pKi (Sigma 2 receptor [1]): 6.99
pKi (D(2) dopamine receptor): < 5.00
pKi [2]: < 5.00
logP [3]: 4.02
Ratio [4]: 121

O=[N+]([O-])c1ccc(OCC2CCN(Cc3ccc(F)cc3)CC2)cc1
pKi (Sigma 2 receptor [6]): 8.41
pKi (D(2) dopamine receptor): < 5.00
pKi [2]: < 5.00
logP [3]: 3.62
Ratio [7]: 3.25

FCCCN1CCC(COc2c(F)c(F)c(F)c(F)c2F)CC1
pKi (Sigma 2 receptor [1]): 8.28
pKi [2]: < 5.00
logP [3]: 4.11
Ratio [4]: 2.05

O=C(CCCN1CCC(O)(c2ccc(Cl)cc2)CC1)c1ccc(F)cc1 [HALOPERIDOL]
Blockade (Rattus norvegicus [8]): 91%

Fc1ccc(CN2CCC(COc3c(F)c(F)c(F)c(F)c3F)CC2)cc1
pKi (Sigma 2 receptor [1]): 8.37
pKi [2]: < 5.00
Ratio [4]: 1.17

N#Cc1ccc(OCC2CCN(CC3CC3)CC2)cc1
pKi [2]: < 6.70
pKi [9]: 8.00

O=[N+]([O-])c1ccc(OCC2CCN(CC3CC3)CC2)cc1
pKi [2]: < 6.70
pKi [9]: 7.89

Brc1cccc(OCC2CCN(CC3CC3)CC2)c1
pKi (Sigma 2 receptor [1]): 8.00
pKi (D(2) dopamine receptor): < 5.00
pKi [2]: < 5.00
logP [3]: 6.36
Ratio [4]: 11.3

N#Cc1ccc(OCC2CCN(Cc3ccccc3I)CC2)cc1
pKi (Sigma 2 receptor [1]): 7.03
pKi [2]: < 6.00
logP [3]: 4.3
Ratio [4]: 10.1

N#Cc1ccc(OCC2CCN(CCCF)CC2)cc1
pKi (Sigma 2 receptor [1]): 6.84
pKi (D(2) dopamine receptor): < 5.00
pKi [2]: < 5.00
logP [3]: 2.93

O=C(CC1CCN(CC2CC2)CC1)c1ccc(F)cc1
pKi [2]: 7.82

CC(C)=CCN1CC[C@]2(C)c3cc(O)ccc3C[C@H]1[C@H]2C (single isomer, unassigned) [(+)-PENTAZOCINE]
Blockade (Rattus norvegicus [10]): 84%

FCCCN1CCC(COc2ccc(Br)cc2)CC1
pKi (Sigma 2 receptor [1]): 7.88
pKi (D(2) dopamine receptor): < 5.00
pKi [2]: < 5.00
logP [3]: 5.88
Ratio [4]: 34.5
